Test results taken from patent publication US10338077B2, “Methods for determining drug efficacy for treatment of cancer ration of cereblon associated proteins” (Celgene Corporation, priority 2015, dated 2019).

Key:
Assay type in all cases: cell-based, human
RPMI-8226 = assay: CellTiter cell proliferation assay, RPMI-8226 (multiple myeloma, irresponsive control); conditions: RPMI-8226 multiple myeloma control cell line
From the text: (§1) ATL cell lines Hut102, ED40515, S1T, OATL4, and OATL9, HTLV-1 transformed cell lines MT-2, MT-4, and C8166, PTCL cell line Hut78, other T-cell Jurkat, MOLT4, HL60, and monocyte cell line K562 are laboratory stocks (Dr. Hidekatsu Iha, Oita University, and Prof. Kazuhiro Morishita, The University of Miyazaki). ATL cell lines ST1, KOB, KK1, and SO4 are gift from Dr. Hiroo Hasegawa, Nagasaki University). NCI-H929 and RPMI-8226 were purchased from American Type Culture Collection (ATCC: Manassas, Va.). Each cell line was maintained with RPMI-1640 culture media supplemented with 15% fetal bovine serum (FBS: Equitech-Bio Inc., Kerrville, Tex.), penicillin G (50 U/ml), and streptomycin (50 μg/ml). Antibiotics were purchased from Sigma-Aldrich Co. LLC. (St. Louis, Mo.).
(§2) Cells were plated in 24-well plates at 5×10^4 cells per 1.5 mL RPMI1640 and kept in 5% CO2 incubator for 24 hours (cell number should reach 1×10^5). […] After 10 minutes incubation at room temperature, the reaction mixture in 96-well plates was read by Glomax luminometer (Promega). Average values and standard deviation were obtained from four independent experiments.
(§3) Relative CellTiter values compared to untreated control cells at day 0 were plotted. […] In addition, OATL4 and KOB display 30% more reductions (see Table 2).

NCI-H929 = assay: CellTiter cell proliferation assay, NCI-H929 (multiple myeloma, responsive control); conditions: NCI-H929 multiple myeloma control cell line
From the text: as §1, §2, §3

Hut102 = assay: CellTiter cell proliferation assay, Hut102 (ATL cell line)
From the text: as §1, §2, §3
(§4) The CellTiter Assay was performed the same way as in Section 6.3, Example 3. Standard deviation was calculated from four experiments.

OATL4 = assay: CellTiter cell proliferation assay, OATL4 (ATL cell line); conditions: see Table 2
From the text: as §1, §2, §3

KOB = assay: CellTiter cell proliferation assay, KOB (ATL cell line); conditions: see Table 2
From the text: as §1, §2, §3

MT-4 = assay: CellTiter cell proliferation assay, MT-4 (HTLV-1 transformed)
From the text: as §1, §2, §3

HuT78 = assay: CellTiter cell proliferation assay, HuT78 (HTLV-1 negative T-cell line); conditions: 10 μM lenalidomide for three days
From the text: as §1, §2
Relative CellTiter values compared to untreated control cells at day 0 were plotted. […]
as §4

MOLT4 = assay: CellTiter cell proliferation assay, MOLT4; conditions: MOLT-4; see Table 2
From the text: as §1, §2, §3

[1] = test system: cell line 5 (ATL cell line); assay: Lenalidomide sensitivity of cell types of Example 2, cell line 5
From the text: (§5) Twenty-three types of cells from, e.g., ATL cell lines, lymphoma cell lines, leukemia cell lines, healthy peripheral blood mononuclear cells (PBMCs), and human T-lymphotropic virus 1 (HTLV-1) carrier's PBMCs are employed in this example.

[2] = test system: cell line 6 (ATL cell line); assay: Lenalidomide sensitivity of cell types of Example 2, cell line 6
From the text: as §5

[3] = test system: cell line 12 (ATL cell line); assay: Lenalidomide sensitivity of cell types of Example 2, cell line 12
From the text: as §5

[4] = test system: cell lines 1-4, 7, 10-11, and 13-23; assay: Lenalidomide sensitivity of cell types of Example 2, other cell lines
From the text: as §5

[5] = Homo sapiens, HuT-102, read-out: remaining activities (cell proliferation activity)

In the case of `Nc1cccc2c1CN(C1CCC(=O)NC1=O)C2=O` (centres unmarked) [lenalidomide, 1-oxo-2-(2,6-dioxopiperidin-3-yl)-4-aminoisoindoline], the “response against lenalidomide treatment (FIG. 3)” value (RPMI-8226) was “insensitive”, the “response against lenalidomide treatment (FIG. 3)” value (NCI-H929) was “sensitive” and the activity at 0.1 µM (Hut102; [5]) was 64.2%. It also gave an activity at 1 µM (Hut102; [5]) of 68.3%, an activity at 10 µM (Hut102; [5]) of 46% and an activity at 100 µM (Hut102; [5]) of 53%. For the same molecule, the “time-dependent cell growth (remaining growth activities, FIG. 4)” value (Hut102; HuT102, 10 μM lenalidomide for three days) was “significant decrease in cell growth”, the “reductions of cell proliferation activity” value (OATL4) was ≥ 30% and the growth inhibition (KOB) was 30%. For the same molecule, the “reductions of cell proliferation activity” value (KOB) was ≥ 30%, the sensitivity to lenalidomide (MT-4) was “moderate sensitive” and the “time-dependent cell growth (remaining growth activities, FIG. 4)” value (HuT78) was “almost unchanged”. For the same molecule, the growth inhibition (MOLT4) was 30%, the sensitivity to lenalidomide [1] was “highly-sensitive” and the sensitivity to lenalidomide [2] was “weak/moderate-sensitive”. The sensitivity to lenalidomide [3] was “weak/moderate-sensitive” and the sensitivity to lenalidomide [4] was “intense tolerance”.
